What was measured:
[1] = test system: dissociated hippocampal and/or cortical neurons; assay: Neuronal survival assay in vitro (5-day exposure); type: cell-based, rat
Procedure: (§1) The neuroprotective and neurotropic actions of the herein defined peptides were determined by their effects upon fetal rodent neuronal cultures. […] The dissociated cells were be plated at low density (50,000 cells/35-mm dish) upon confluent layers of astrocytes. The astrocyte feeder layers were prepared from the hippocampi and/or cortices of 2-day-old rat pups. Following treatment with 0,125% trypsin for 15 min, the tissue was triturated and plated at 2.5×10^5 cells into 35-mm tissue culture dishes coated with Vintrogen (Collagen, Palo Alto) and poly-L-lysine (M1 30-70K 10^-5 M borate, pH 8.4, Sigma). The resulting feeder layers were grown in Eagle's minimal essential medium (MEM, formula 82-0234, Gibco) with 10% fetal bovine serum until confluent (12-14 days); feeder layers prepared in this way were devoid of neurons and consisted predominantly of flat cells that were stained by antibodies to glia fibrillary acidic protein. When hippocampal and/or cortical neurons were added to the confluent feeder cultures, the medium was changed to 94% MEM, 5% horse serum (Gibco) and an added nutrient supplement containing insulin, transferrin, putrescine, selenium, corticosterone, progesterone and triiodothyronine. The resulting mixed neuron/glia cultures are treated one day after plating with 5'-fluoro-2'-deoxyuridine (15 μg/ml plus uridine, 35Mg/ml) to suppress the overgrowth of background cells. The neuronal cultures were allowed to grow for one week prior to the beginning of the experimental period and the medium was changed prior to adding peptides or controls.
The test period of exposure to peptides was five days long, a period in which cell survivability can be accurately quantitated. […] Neurons were counted in 100 fields at predetermined stage coordinates. Cultures were coded and counted in a blinded fashion without knowledge of sample treatment. The total area counted was 50 mm^2. […] The maximum effect was detected at 0.1 nM, with approximately a 25% increase in cell survival compared to vehicle (Control) treated cultures.

[2] = test system: hippocampal neuronal cells; assay: Twenty one day survival of hippocampal neuronal cell cultures; type: cell-based, rat; settings: 0.1 nM
Procedure: as §1, with “The resulting mixed neuron/glia cultures are treated one day after plating with 5'-fluoro-2'-deoxyuridine (15 μg/ml plus uridine, 35Mg/ml) to suppress the overgrowth of background cells. The neuronal cultures were allowed to grow for one week prior to the beginning of the experimental period and the medium was changed prior to adding peptides or controls.” left out

`C[C@@H](N)C(=O)N[C@@H](CO)C(=O)N[C@H](C(=O)N[C@H](C(=O)N[C@H](C(=O)N[C@@H](CC(N)=O)C(=O)N[C@@H](Cc1ccc(O)cc1)C(=O)N[C@H](C(N)=O)[C@@H](C)O)[C@@H](C)O)[C@@H](C)O)[C@@H](C)O` [DAPTA] was tested, and the “effect on neuronal survival (neuronal cell count as percentage of Control)” value ([1]; 7-day-old neuronal cultures, five days exposure, vs vehicle control, FIG. 1) was “caused an increase in neuronal survival”, the “increase in cell survival compared to vehicle (Control) treated cultures” value ([1]; at 0.1 nM (maximum effect), five days) was ~25% and the “concentration of maximum effect on neuronal survival” value ([1]; five days exposure, FIG. 1) was 0.1 nM. For the same compound, the “increase in cell survival compared to vehicle treated cultures” value ([2]; after twenty one days, FIG. 2) was 4 fold and the “cell survival rate over the test period” value ([2]; at all times during the twenty one day test period, vs vehicle) was “enhanced”.
